# Source: article PMC3635830 (Biochemistry, 2013)
# Biological target: tryptophan 2-monooxygenase (TMO) (Pseudomonas savastanoi, UniProt P06617)
# Test: X-ray crystal structure, […] Å
# Settings: FAD-binding domain; IAM also bound
# tryptophan 2-monooxygenase (TMO), sequence (P06617 whole entry): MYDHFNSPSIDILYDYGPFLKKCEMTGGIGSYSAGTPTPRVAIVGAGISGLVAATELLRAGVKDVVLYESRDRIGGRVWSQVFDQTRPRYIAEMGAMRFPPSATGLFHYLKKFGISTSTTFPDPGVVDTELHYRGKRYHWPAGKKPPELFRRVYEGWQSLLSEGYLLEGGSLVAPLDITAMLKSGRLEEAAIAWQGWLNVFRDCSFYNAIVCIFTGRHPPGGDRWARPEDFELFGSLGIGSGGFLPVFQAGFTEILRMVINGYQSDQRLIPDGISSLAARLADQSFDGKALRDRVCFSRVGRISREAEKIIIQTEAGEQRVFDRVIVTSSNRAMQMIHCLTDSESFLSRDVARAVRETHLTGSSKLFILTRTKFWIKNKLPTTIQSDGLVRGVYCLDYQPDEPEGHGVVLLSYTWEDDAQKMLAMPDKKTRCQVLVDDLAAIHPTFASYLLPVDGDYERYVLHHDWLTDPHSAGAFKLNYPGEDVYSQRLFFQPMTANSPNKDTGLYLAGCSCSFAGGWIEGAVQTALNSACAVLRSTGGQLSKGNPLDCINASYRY
structure (smiles),measurement,value
Cc1cc2nc3c(=O)[nH]c(=O)nc-3n(C[C@H](O)[C@H](O)[C@H](O)COP(=O)(O)OP(=O)(O)OC[C@H]3O[C@@H](n4cnc5c(N)ncnc54)[C@H](O)[C@@H]3O)c2cc1C [FAD],"X-ray crystal structure, 1.95 Å",The FAD cofactor and the bound indole-3-acetamide occupy a large internal cavity
